Assay results taken from patent US10202373B2, “Heteroaryls and uses thereof” (MILLENNIUM PHARMACEUTICALS, INC., priority 2014, dated 2019).

Molecular target: human VPS34 (Homo sapiens (Human), UniProt Q8NEB9)
Experiment: Human VPS34 enzyme assay (Adapta TR-FRET)
Format: biochemical
Conditions: for inhibition at 1.11 µM: 1 h, inhibition of VPS34 at a 1.11 μM concentration, read-out: Percent Inhibition; for IC50: human VPS34 enzyme assay, IC50 ranges
Description: VPS34 (accession number GB:BC033004) was cloned into pDEST20-Thombin as N-terminal GST tagged fusion proteins using the Gateway system (Invitrogen, catalog#11804-013). The sequences were verified before recombinant protein expression using the Baculovirus Expression System with Gateway® Technology. For expression VPS34 was infected at 1 MOI in SF9 cells and harvested 72 hours post infection. For purification, VPS34 is purified by Glutathione Sepharose 4 Fast Flow (GE Healthcare #17-5132-03) followed by HiTrap Q (GE Healthcare #17-1153-01). Human VPS34 Enzyme Assay Method 100 nL compounds in DMSO are added to wells of a 384 well microtitre plate (Greiner 780076). At room temperature: 5 ul VPS34 reaction buffer (Invitrogen Assay Buffer Q (diluted 1 in 5 with nanopure water) plus 2 mM DTT and 2 mM MnCl2) containing ATP (20 uM, Promega) and 200 uM PI-PS substrate (Invitrogen PV5122) is added followed immediately by 5 ul VPS34 reaction buffer (as above) containing VPS34 (5 nM, Millennium Protein Sciences Group) and the mixture is incubated with shaking at room temperature for 1 hour. Then 5 ul […]-detect mix (as per Invitrogen Adapta Assay kit (PV5009) instructions (contains kinase quench buffer, TR-FRET buffer, Adapta Eu anti-ADP antibody and Alexa Fluor 647 ADP tracer)) is added to quench the reaction. The plates are then incubated for 30 minutes at room temperature with shaking and then read on a BMG PheraStar Plus reader. For the assay methods described above, test compound percent inhibition, at various concentrations, is calculated relative to control (DMSO and EDTA) treated samples. Compound concentration versus percent inhibition curves are fitted to generate IC50 values. One skilled in the art will appreciate that the values generated either as percentage inhibition at a single concentration or IC50 values are subject to experimental variation. […] Additionally, compounds of the invention that inhibit VPS34 are described with the following IC50 ranges: […]

Chain of human VPS34 (Q8NEB9 whole entry): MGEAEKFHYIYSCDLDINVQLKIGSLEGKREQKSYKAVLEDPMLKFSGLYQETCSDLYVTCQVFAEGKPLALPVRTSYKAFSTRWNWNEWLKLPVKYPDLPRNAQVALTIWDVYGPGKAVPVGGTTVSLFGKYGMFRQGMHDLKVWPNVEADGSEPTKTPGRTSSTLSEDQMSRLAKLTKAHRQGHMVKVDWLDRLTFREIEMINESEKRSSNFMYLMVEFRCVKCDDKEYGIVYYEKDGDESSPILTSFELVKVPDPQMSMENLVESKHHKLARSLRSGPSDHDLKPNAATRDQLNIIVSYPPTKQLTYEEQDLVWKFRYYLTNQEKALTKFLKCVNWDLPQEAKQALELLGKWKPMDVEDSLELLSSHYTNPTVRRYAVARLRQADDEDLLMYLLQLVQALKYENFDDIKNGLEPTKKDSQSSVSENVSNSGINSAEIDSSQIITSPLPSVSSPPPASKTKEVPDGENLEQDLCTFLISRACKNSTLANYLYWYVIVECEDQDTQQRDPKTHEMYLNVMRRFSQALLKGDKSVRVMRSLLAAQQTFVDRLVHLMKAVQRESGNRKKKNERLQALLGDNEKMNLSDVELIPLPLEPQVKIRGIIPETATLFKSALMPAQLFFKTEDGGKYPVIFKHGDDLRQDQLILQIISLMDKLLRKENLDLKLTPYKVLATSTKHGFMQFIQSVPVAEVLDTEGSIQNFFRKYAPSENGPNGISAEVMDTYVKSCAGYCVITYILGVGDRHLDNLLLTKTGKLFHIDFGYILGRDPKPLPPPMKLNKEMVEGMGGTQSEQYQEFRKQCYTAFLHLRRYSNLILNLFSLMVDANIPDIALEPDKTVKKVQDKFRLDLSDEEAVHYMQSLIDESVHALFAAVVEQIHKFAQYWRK

Row | Structure (SMILES) | inhibition at 1.11 µM [%] | IC50 [nM]
1 | Cc1nccc(Nc2cc(-c3cnc(C)c4[nH]ccc34)ccn2)n1 [Compound I-51, 2-methyl-N-[4-(7-methyl-1H-pyrrolo[2,3-c]pyridin-4-yl)pyridin-2-yl]pyrimidin-4-amine] | 91 | 10 to 50
2 | CC(=O)Nc1cc(-c2cnc(C)c3c2c(C)cn3S(C)(=O)=O)ccn1 [Compound I-5, N-{4-[3,7-dimethyl-1-(methylsulfonyl)-1H-pyrrolo[2,3-c]pyridin-4-yl]pyridin-2-yl}acetamide] | > 99 | 50 to 100
3 | Cc1ncc(-c2ccnc(NC(=O)CO)c2)c2ccn(S(=O)(=O)C3CC3)c12 [Compound I-48, N-{4-[1-(cyclopropylsulfonyl)-7-methyl-1H-pyrrolo[2,3-c]pyridin-4-yl]pyridin-2-yl}-2-hydroxyacetamide] | > 99 | 10 to 50
4 | COC(=O)Nc1cc(-c2cnc(C)c3c2ccn3S(=O)(=O)C2CCCC2)ccn1 [Compound I-12, methyl {4-[1-(cyclopentylsulfonyl)-7-methyl-1H-pyrrolo[2,3-c]pyridin-4-yl]pyridin-2-yl}carbamate] | > 99 | 10 to 50
5 | COC(=O)Nc1cc(-c2cnc(OC)c3c2ccn3S(=O)(=O)c2ccccc2)ccn1 [Compound I-10, methyl {4-[7-methoxy-1-(phenylsulfonyl)-1H-pyrrolo[2,3-c]pyridin-4-yl]pyridin-2-yl}carbamate] | > 99 | < 10
6 | c1cc(Nc2cc(-c3cncc4[nH]ccc34)ccn2)ncn1 [Compound I-50, N-[4-(1H-pyrrolo[2,3-c]pyridin-4-yl)pyridin-2-yl]pyrimidin-4-amine] | 82 | 10 to 50
7 | CC(=O)Nc1cc(-c2cncc3c2ccn3S(=O)(=O)c2ccccc2)ccn1 [Compound I-39, N-{4-[1-(phenylsulfonyl)-1H-pyrrolo[2,3-c]pyridin-4-yl]pyridin-2-yl}acetamide] | > 99 | < 10
8 | CC(=O)Nc1cc(-c2cnc(C)c3c2ccn3S(=O)(=O)c2ccc(F)cc2F)ccn1 [Compound I-11, N-(4-{1-[(2,4-difluorophenyl)sulfonyl]-7-methyl-1H-pyrrolo[2,3-c]pyridin-4-yl}pyridin-2-yl)acetamide] | > 99 | 10 to 50
9 | CC(=O)Nc1cc(-c2cnc(C)c3c2ccn3S(=O)(=O)N2CCCC2)ccn1 [Compound I-23, N-{4-[7-methyl-1-(pyrrolidin-1-ylsulfonyl)-1H-pyrrolo[2,3-c]pyridin-4-yl]pyridin-2-yl}acetamide] | > 99 | < 10
10 | COC(=O)Nc1cc(-c2cncc3c2ccn3S(=O)(=O)C2CC2)ccn1 [Compound I-30, methyl {4-[1-(cyclopropylsulfonyl)-1H-pyrrolo[2,3-c]pyridin-4-yl]pyridin-2-yl}carbamate] | 99 | 10 to 50
11 | CC(=O)Nc1cc(-c2cnc(N(C)C)c3c2ccn3S(=O)(=O)C2CC2)ccn1 [Compound I-18, N-{4-[1-(cyclopropylsulfonyl)-7-(dimethylamino)-1H-pyrrolo[2,3-c]pyridin-4-yl]pyridin-2-yl}acetamide] | > 99 | 10 to 50
12 | CC(=O)Nc1cc(-c2cnc(C)c3c2ccn3S(=O)(=O)c2ccccc2)ccn1 [Compound I-4, N-{4-[7-methyl-1-(phenylsulfonyl)-1H-pyrrolo[2,3-c]pyridin-4-yl]pyridin-2-yl}acetamide] | > 99 | < 10
13 | CC(=O)Nc1cc(-c2cncc3c2cc(C)n3S(=O)(=O)c2ccccc2)ccn1 [Compound I-31, N-{4-[2-methyl-1-(phenylsulfonyl)-1H-pyrrolo[2,3-c]pyridin-4-yl]pyridin-2-yl}acetamide] | > 99 | 10 to 50
14 | CC(=O)Nc1cc(-c2cncc3c2cnn3S(=O)(=O)C2CC2)ccn1 [Compound I-22, N-{4-[1-(cyclopropylsulfonyl)-1H-pyrazolo[3,4-c]pyridin-4-yl]pyridin-2-yl}acetamide] | > 99 | 50 to 100
15 | CC(=O)Nc1cc(-c2cncc3c2ccn3S(=O)(=O)C2CC2)c(F)cn1 [Compound I-8, N-{4-[1-(cyclopropylsulfonyl)-1H-pyrrolo[2,3-c]pyridin-4-yl]-5-fluoropyridin-2-yl}acetamide] | > 99 | 10 to 50
16 | CC(=O)Nc1cc(-c2cncc3c2ccn3S(=O)(=O)C2CC2)ccn1 [Compound I-37, N-{4-[1-(cyclopropylsulfonyl)-1H-pyrrolo[2,3-c]pyridin-4-yl]pyridin-2-yl}acetamide] | > 99 | < 10
17 | COC(=O)Nc1cc(-c2cnc(C)c3c2ccn3S(=O)(=O)C2CC2)ccn1 [Compound I-43, methyl {4-[1-(cyclopropylsulfonyl)-7-methyl-1H-pyrrolo[2,3-c]pyridin-4-yl]pyridin-2-yl}carbamate] | > 99 | < 10
18 | CC(=O)Nc1cc(-c2cnc(C)c3c2ccn3S(=O)(=O)N(C)C)ccn1 [Compound I-7, N-{4-[1-(dimethylsulfamoyl)-7-methyl-1H-pyrrolo[2,3-c]pyridin-4-yl]pyridin-2-yl}acetamide] | > 99 | < 10
